What was measured:
FLT3 = target: T1, FLT3 (Homo sapiens, UniProt P36888); test: Assay of FLT3 inhibitory activity in vitro (Promega FLT3 Kinase Enzyme System, ADP-Glo); type: biochemical; details: 50 μmol/L ATP, 30° C., 120 minutes
T1 construct: purchased Promega
Procedure: (§1) The assay was carried out in duplicate. […] After the reaction was completed, 5 μL of ADP-Glo reagent was added to each well. The system was further reacted at 30° C. for 40 minutes. After the reaction was completed, 10 μL of kinase detection reagent was added to each well and reacted at 30° C. for 30 minutes. The chemiluminescence was then read by the PerkinElmer Envision multi-label analyzer with an integration time of 0.5 seconds.
(§2) The original data was converted into an inhibition rate, and the IC50 value can be obtained by four-parameter curve fitting.

AXL = target: T2, AXL (Homo sapiens, UniProt P30530); test: Assay of AXL inhibitory activity in vitro (Promega AXL Kinase Enzyme System, ADP-Glo); type: biochemical; details: 50 μmol/L ATP, 30° C., 60 minutes
T2 construct: purchased Promega
T2 sequence (P30530 26-894): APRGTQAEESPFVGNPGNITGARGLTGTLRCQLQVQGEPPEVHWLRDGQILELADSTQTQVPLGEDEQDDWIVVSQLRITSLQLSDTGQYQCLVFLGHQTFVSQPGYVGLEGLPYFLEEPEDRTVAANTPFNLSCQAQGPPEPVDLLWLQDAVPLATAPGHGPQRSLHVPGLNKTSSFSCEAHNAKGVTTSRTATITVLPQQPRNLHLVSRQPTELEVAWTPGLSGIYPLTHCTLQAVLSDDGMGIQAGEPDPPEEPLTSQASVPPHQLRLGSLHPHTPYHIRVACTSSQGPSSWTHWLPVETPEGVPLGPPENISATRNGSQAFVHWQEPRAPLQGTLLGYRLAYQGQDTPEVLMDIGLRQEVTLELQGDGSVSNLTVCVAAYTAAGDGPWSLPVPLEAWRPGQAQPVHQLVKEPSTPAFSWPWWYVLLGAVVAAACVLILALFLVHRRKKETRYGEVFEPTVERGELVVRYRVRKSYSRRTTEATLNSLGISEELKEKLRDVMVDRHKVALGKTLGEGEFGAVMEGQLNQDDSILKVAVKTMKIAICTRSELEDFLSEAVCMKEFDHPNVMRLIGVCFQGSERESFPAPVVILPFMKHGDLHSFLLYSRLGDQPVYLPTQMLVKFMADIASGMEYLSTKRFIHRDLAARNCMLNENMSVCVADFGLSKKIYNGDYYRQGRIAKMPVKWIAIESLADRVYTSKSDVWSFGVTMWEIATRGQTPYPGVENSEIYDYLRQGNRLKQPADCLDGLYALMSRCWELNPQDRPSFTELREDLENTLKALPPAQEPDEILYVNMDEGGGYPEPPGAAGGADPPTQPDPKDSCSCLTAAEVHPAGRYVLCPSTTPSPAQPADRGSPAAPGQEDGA
Procedure: AXL Kinase Enzyme System (kinase system) was purchased from Promega. Envision multi-label Analyzer (PerkinElmer).
The enzyme, substrate, ATP and inhibitors were diluted using the buffer solution in the kit.
as §1, with “duplicate. 1 μl of the inhibitors of each concentration gradient, 2 μl of the AXL enzyme (6 ng), and a 2 μl mixture of the substrate and ATP (50 μmol/L ATP, 0.2 μg/μL Axltide) were added to the microplate.” for “duplicate.”
as §2

[1] = tested on: human biphenotypic B bone marrow mononuclear leukemia cell MV4-11 subcutaneous xenograft tumor; test: Inhibition of MV4-11 subcutaneous xenograft tumor in vivo; design: species or system nude mice; details: for % Inhibition rate on day 14 / Average tumor volume Day 14: Oral, Once a day
Procedure: In this assay, the anti-tumor effect of the compounds was evaluated using a nude mice model of subcutaneous xenograft tumor of human biphenotypic B bone marrow mononuclear leukemia cell MV4-11.
Human biphenotypic B bone marrow mononuclear leukemia cell MV4-11 was cultured in vitro in suspension with a RPMI1640 medium supplemented with 10% fetal bovine serum, 100 U/mL penicillin and 100 μg/mL streptomycin in a 5% CO2 cell incubator at 37° C. Routine passaging was performed twice a week. Cells in the logarithmic growth phase were collected, counted and then used for inoculation.
0.2 mL (1×10^7) of MV4-11 cells (plus matrigel, with a volume ratio of 1:1) were inoculated subcutaneously on the right back of each mouse. The grouping and dosing were started when the average tumor volume reached about 140-200 mm^3.
The diameter of the tumor was measured with vernier calipers twice a week. The formula for calculating the tumor volume is: V=0.5a×b^2, where a and b represent the long and short diameters of the tumor, respectively.

[2] = In vivo pharmacokinetic assay in dogs; design: species or system Male Beagle dogs; details: 1 mg/kg
Procedure: Male Beagle dogs older than 6 months of age were selected. On the day of the assay, the animals were given the corresponding compound by single injection in the cephalic or saphenous vein in a volume of 1 mL/kg for the intravenous group; and by single gavage in a volume of 5 mL/kg for the oral group. The animals were weighed before administration and the dosing volume of the compound was calculated based on their body weight. About 0.5 mL of whole blood was collected from the cephalic or saphenous vein at each time point to prepare plasma for determination of concentrations by high performance liquid chromatography-tandem mass spectrometry (LC-MS/MS). Plasma concentrations were processed using non-compartment model of WinNonlin™ Version 6.3 or above (Pharsight, Mountain View, Calif.) pharmacokinetic software, and pharmacokinetic parameters were calculated using the linear log trapezoidal method.

T1 sequence (P36888 27-993): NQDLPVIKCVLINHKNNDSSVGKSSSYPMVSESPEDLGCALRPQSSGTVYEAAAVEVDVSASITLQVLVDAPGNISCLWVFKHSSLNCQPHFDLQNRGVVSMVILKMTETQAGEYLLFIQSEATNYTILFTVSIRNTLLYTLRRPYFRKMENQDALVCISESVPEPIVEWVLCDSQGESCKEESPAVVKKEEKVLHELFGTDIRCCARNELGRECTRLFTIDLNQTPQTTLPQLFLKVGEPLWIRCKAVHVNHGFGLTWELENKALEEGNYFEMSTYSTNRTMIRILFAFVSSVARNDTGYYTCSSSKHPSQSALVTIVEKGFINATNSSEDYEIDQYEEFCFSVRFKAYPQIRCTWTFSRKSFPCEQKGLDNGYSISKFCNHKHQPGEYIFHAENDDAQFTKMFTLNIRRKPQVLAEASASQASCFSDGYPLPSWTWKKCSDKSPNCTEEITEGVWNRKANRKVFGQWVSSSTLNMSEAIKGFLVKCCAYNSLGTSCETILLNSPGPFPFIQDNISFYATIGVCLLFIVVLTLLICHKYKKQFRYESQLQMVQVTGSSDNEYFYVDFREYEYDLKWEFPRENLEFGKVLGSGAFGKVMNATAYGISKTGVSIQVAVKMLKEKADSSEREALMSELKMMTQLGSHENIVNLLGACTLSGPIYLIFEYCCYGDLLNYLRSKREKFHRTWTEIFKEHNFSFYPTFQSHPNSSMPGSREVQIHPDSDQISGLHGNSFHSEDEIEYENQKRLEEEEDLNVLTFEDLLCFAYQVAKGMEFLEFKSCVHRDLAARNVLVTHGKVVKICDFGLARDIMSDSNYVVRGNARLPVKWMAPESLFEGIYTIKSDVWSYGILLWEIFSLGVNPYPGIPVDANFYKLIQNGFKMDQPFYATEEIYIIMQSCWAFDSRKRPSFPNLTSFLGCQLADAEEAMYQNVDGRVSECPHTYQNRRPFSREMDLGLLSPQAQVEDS

CCc1nc(C(N)=O)c(Nc2ccc(N3CCC4(CCN(C)CC4)CC3)c(C)c2)nc1NC1CCOCC1.O=C(O)C(F)(F)F
IC50 (FLT3): 0.42 nM
IC50 (AXL): 1.22 nM
% Inhibition rate on day 14 ([1]; 1 mg/kg): 66.1%
Average tumor volume Day 14 ([1]; 1 mg/kg): 375 mm^3
% Inhibition rate on day 14 ([1]; 1.5 mg/kg): 81.0%
Average tumor volume Day 14 ([1]; 1.5 mg/kg): 273 mm^3
% Inhibition rate on day 14 ([1]; 4.5 mg/kg): 114.7%
Average tumor volume Day 14 ([1]; 4.5 mg/kg): 51 mm^3
Average tumor volume Day 0 ([1]; Day 0, one value for all groups, before dosing): 149 mm^3
AUC0-last ([2]; Injection): 765 nm·h
Cl ([2]; Injection): 34.2 mL/min/kg
T1/2 ([2]; Injection): 9.83 h
Vdss ([2]; Injection): 28.9 L/kg
Cmax ([2]; Oral): 21.1 nM
F% ([2]; Oral): 41.6%
Tmax ([2]; Oral): 4.00 h
